Test results reported in the kinase profiling compilation of Christmann-Franck et al. (2016).

Tests used:
Experiment in all cases: KINOMEscan competition binding
Settings in all cases: compound 10.0 µM
BLK (human) = BLK (human) (UniProt P51451)
BMPR1B (human) = BMPR1B (human) (UniProt O00238)
CSNK1G1 (human) = CSNK1G1 (human) (UniProt Q9HCP0)
DCLK1 (human) = DCLK1 (human) (UniProt O15075)
DYRK1B (human) = DYRK1B (human) (UniProt Q9Y463)
[1] = test system: EIF2AK4 KD2 (human), Q9P2K8 [S808G]
EPHA1 (human) = EPHA1 (human) (UniProt P21709)
EPHA8 (human) = EPHA8 (human) (UniProt P29322)
FER (human) = FER (human) (UniProt P16591)
FES (human) = FES (human) (UniProt P07332)
FGFR2 (human) = FGFR2 (human) (UniProt P21802)
FGFR3 (human) = FGFR3 (human) (UniProt P22607)
FLT3 (human) = FLT3 (human) (UniProt P36888)
GAK (human) = GAK (human) (UniProt O14976)
GSK3B (human) = GSK3B (human) (UniProt P49841)
LCK (human) = LCK (human) (UniProt P06239)
MAP2K2 (human) = MAP2K2 (human) (UniProt P36507)
MAP2K4 (human) = MAP2K4 (human) (UniProt P45985)
MAP2K6 (human) = MAP2K6 (human) (UniProt P52564)
MAP3K10 (human) = MAP3K10 (human) (UniProt Q02779)
MAP4K1 (human) = MAP4K1 (human) (UniProt Q92918)
MAPK10 (human) = MAPK10 (human) (UniProt P53779)
MINK1 (human) = MINK1 (human) (UniProt Q8N4C8)
MKNK2 (human) = MKNK2 (human) (UniProt Q9HBH9)
MLTK (human) = MLTK (human) (UniProt Q9NYL2)
NTRK1 (human) = NTRK1 (human) (UniProt P04629)
NTRK3 (human) = NTRK3 (human) (UniProt Q16288)
PAK4 (human) = PAK4 (human) (UniProt O96013)
PAK7 (human) = PAK7 (human) (UniProt Q9P286)
PDGFRA (human) = PDGFRA (human) (UniProt P16234)
PIM2 (human) = PIM2 (human) (UniProt Q9P1W9)
RPS6KA1 KD1 (human) = RPS6KA1 KD1 (human) (UniProt Q15418)
RPS6KA3 KD1 (human) = RPS6KA3 KD1 (human) (UniProt P51812)
SLK (human) = SLK (human) (UniProt Q9H2G2)
SRMS (human) = SRMS (human) (UniProt Q9H3Y6)
STK16 (human) = STK16 (human) (UniProt O75716)
STK32B (human) = STK32B (human) (UniProt Q9NY57)
STK38L (human) = STK38L (human) (UniProt Q9Y2H1)
TAOK3 (human) = TAOK3 (human) (UniProt Q9H2K8)
TTK (human) = TTK (human) (UniProt P33981)

Sequence of FES (human) (P07332 whole entry, looked up): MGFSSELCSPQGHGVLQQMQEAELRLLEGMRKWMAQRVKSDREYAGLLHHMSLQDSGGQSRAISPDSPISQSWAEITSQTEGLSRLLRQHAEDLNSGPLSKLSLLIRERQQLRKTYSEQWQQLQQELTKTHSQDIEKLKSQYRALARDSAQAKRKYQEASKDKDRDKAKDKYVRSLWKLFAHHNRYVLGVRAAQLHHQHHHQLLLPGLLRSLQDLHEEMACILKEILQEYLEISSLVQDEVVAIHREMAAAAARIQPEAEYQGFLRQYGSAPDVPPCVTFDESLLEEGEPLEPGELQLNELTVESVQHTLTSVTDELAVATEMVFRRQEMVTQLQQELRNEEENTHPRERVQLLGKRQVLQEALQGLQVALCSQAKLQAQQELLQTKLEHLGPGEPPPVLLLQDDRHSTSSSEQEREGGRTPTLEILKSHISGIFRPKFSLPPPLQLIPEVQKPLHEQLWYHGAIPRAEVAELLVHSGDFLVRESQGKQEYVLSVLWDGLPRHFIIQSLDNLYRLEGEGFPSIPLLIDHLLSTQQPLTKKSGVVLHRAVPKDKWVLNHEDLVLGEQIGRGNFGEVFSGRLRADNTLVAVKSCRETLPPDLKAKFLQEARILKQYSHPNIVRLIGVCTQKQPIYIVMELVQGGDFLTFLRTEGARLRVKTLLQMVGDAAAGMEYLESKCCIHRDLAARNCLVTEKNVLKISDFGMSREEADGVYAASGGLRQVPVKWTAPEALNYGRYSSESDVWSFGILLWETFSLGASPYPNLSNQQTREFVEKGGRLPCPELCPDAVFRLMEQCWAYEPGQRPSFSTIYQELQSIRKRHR
Sequence of PDGFRA (human) (P16234 whole entry, looked up): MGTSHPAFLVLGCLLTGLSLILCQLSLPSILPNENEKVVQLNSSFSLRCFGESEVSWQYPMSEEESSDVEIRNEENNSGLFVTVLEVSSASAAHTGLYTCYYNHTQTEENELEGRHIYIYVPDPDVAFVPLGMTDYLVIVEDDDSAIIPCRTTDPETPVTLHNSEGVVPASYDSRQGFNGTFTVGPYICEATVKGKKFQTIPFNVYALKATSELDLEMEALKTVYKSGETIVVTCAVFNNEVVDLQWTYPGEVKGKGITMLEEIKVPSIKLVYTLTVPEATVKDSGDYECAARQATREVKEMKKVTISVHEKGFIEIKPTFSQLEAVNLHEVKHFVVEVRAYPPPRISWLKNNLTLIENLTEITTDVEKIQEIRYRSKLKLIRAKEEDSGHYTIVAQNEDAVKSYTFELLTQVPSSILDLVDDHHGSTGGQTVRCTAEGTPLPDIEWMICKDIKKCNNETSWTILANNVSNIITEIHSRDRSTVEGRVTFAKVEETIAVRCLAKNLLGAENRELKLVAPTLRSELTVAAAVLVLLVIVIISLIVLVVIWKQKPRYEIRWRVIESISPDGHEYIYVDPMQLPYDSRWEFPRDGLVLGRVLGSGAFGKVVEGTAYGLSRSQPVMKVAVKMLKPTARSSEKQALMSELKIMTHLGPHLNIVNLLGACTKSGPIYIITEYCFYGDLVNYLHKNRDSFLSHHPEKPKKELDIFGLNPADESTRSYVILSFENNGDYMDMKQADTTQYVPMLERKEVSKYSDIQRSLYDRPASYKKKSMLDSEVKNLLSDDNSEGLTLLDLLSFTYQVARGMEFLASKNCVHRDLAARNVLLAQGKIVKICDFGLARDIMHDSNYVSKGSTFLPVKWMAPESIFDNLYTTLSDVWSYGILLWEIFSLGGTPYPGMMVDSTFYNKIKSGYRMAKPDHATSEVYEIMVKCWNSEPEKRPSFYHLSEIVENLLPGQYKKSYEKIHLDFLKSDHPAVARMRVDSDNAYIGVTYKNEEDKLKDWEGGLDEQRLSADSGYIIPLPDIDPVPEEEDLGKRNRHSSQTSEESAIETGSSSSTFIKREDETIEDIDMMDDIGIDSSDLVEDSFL
Sequence of NTRK1 (human) (P04629 whole entry, looked up): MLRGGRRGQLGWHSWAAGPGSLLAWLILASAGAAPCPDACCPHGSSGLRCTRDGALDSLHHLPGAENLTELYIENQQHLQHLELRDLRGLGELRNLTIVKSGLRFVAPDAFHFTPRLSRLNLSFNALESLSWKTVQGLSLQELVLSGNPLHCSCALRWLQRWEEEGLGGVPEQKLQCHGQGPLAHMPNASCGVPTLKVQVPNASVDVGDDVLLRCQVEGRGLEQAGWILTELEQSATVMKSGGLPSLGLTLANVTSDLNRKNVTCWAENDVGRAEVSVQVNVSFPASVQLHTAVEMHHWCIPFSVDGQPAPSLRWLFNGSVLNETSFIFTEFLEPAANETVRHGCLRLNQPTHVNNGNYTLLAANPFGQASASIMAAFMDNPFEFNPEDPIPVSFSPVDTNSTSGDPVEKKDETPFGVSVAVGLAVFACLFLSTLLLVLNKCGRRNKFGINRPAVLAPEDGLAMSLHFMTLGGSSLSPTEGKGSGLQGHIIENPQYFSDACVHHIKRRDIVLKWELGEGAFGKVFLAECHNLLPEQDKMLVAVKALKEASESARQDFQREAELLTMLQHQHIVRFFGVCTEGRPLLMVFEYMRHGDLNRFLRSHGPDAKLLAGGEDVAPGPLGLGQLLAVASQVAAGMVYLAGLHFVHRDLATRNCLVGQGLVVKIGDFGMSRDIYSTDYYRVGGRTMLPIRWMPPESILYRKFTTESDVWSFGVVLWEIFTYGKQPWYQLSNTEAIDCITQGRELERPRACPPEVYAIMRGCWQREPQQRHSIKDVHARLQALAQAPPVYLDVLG
Sequence of SLK (human) (Q9H2G2 whole entry, looked up): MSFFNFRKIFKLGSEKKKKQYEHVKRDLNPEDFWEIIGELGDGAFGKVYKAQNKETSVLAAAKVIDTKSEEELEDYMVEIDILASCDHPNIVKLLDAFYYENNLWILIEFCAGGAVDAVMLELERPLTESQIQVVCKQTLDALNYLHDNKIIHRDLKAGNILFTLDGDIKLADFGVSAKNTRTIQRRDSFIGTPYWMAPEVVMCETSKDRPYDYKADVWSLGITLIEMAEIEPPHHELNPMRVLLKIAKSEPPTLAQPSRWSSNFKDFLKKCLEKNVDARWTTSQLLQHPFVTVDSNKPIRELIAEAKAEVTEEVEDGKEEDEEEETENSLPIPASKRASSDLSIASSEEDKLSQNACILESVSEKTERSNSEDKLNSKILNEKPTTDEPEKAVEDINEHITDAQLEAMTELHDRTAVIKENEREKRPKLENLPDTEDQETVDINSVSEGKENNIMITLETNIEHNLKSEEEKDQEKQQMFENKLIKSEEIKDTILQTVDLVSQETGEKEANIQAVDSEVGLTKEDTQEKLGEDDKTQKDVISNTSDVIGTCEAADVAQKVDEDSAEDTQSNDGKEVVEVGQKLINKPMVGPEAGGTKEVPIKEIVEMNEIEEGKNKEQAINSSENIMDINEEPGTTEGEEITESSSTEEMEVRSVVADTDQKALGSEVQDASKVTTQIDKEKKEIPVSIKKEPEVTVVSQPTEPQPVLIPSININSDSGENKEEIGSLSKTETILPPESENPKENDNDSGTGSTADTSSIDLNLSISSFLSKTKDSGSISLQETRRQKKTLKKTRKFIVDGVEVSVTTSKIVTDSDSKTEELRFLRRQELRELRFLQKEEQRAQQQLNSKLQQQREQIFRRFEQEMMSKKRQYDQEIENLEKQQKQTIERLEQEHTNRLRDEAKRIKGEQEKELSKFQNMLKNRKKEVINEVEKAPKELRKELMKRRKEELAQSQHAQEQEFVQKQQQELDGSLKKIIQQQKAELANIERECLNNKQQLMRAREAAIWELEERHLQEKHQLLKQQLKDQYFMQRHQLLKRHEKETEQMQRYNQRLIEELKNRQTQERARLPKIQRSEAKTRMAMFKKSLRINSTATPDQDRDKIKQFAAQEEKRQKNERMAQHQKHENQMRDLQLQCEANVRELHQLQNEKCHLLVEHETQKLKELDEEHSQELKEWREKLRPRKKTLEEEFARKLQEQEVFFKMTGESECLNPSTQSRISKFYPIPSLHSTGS
Sequence of BMPR1B (human) (O00238 whole entry, looked up): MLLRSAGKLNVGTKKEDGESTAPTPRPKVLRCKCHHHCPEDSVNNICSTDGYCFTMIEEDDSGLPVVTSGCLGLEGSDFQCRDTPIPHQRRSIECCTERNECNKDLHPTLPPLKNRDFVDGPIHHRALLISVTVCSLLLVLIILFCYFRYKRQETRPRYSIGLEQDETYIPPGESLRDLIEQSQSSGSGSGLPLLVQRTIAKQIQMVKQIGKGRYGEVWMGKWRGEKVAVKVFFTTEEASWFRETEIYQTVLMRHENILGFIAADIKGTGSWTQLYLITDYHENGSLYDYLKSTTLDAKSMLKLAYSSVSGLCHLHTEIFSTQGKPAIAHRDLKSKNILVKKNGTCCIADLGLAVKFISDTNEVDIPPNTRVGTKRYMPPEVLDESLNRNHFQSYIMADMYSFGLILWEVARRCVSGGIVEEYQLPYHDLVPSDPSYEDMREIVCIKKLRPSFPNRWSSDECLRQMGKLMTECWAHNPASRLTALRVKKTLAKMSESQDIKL
Sequence of DYRK1B (human) (Q9Y463 whole entry, looked up): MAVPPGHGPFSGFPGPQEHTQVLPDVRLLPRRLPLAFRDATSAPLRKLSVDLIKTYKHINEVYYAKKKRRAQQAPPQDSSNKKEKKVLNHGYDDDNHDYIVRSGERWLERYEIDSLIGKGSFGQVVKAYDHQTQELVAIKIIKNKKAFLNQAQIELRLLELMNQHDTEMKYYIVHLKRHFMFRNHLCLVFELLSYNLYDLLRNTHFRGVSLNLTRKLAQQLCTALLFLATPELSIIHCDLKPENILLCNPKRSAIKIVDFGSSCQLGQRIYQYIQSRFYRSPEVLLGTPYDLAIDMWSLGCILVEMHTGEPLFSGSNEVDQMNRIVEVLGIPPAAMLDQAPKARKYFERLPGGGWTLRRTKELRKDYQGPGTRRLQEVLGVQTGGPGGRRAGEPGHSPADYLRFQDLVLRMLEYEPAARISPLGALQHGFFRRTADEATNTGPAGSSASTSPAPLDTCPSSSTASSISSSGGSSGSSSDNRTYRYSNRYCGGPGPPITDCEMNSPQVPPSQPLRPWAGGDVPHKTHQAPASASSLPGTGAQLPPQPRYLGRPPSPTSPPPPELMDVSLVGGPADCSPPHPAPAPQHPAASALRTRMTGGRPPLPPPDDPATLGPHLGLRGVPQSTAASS

## C=CC(=O)Nc1cc(NC(=O)c2ccc(C)c(NC(=O)c3ccno3)c2)cc(C(F)(F)F)c1
BLK (human)
  kinase still bound, per cent of control: 97%
BMPR1B (human)
  kinase still bound, per cent of control: 100%
CSNK1G1 (human)
  kinase still bound, per cent of control: 100%
DCLK1 (human)
  kinase still bound, per cent of control: 100%
DYRK1B (human)
  kinase still bound, per cent of control: 95%
[1]
  kinase still bound, per cent of control: 100%
EPHA1 (human)
  kinase still bound, per cent of control: 99%
EPHA8 (human)
  kinase still bound, per cent of control: 3.6%
FER (human)
  kinase still bound, per cent of control: 100%
FES (human)
  kinase still bound, per cent of control: 100%
FGFR2 (human)
  kinase still bound, per cent of control: 99%
FGFR3 (human)
  kinase still bound, per cent of control: 97%
FLT3 (human)
  kinase still bound, per cent of control: 100%
GAK (human)
  kinase still bound, per cent of control: 100%
GSK3B (human)
  kinase still bound, per cent of control: 100%
LCK (human)
  kinase still bound, per cent of control: 45%
MAP2K2 (human)
  kinase still bound, per cent of control: 93%
MAP2K4 (human)
  kinase still bound, per cent of control: 100%
MAP2K6 (human)
  kinase still bound, per cent of control: 100%
MAP3K10 (human)
  kinase still bound, per cent of control: 100%
MAP4K1 (human)
  kinase still bound, per cent of control: 75%
MAPK10 (human)
  kinase still bound, per cent of control: 86%
MINK1 (human)
  kinase still bound, per cent of control: 84%
MKNK2 (human)
  kinase still bound, per cent of control: 100%
MLTK (human)
  kinase still bound, per cent of control: 6%
NTRK1 (human)
  kinase still bound, per cent of control: 87%
NTRK3 (human)
  kinase still bound, per cent of control: 100%
PAK4 (human)
  kinase still bound, per cent of control: 93%
PAK7 (human)
  kinase still bound, per cent of control: 94%
PDGFRA (human)
  kinase still bound, per cent of control: 41%
PIM2 (human)
  kinase still bound, per cent of control: 96%
RPS6KA1 KD1 (human)
  kinase still bound, per cent of control: 99%
RPS6KA3 KD1 (human)
  kinase still bound, per cent of control: 96%
SLK (human)
  kinase still bound, per cent of control: 100%
SRMS (human)
  kinase still bound, per cent of control: 77%
STK16 (human)
  kinase still bound, per cent of control: 100%
STK32B (human)
  kinase still bound, per cent of control: 100%
STK38L (human)
  kinase still bound, per cent of control: 88%
TAOK3 (human)
  kinase still bound, per cent of control: 77%
TTK (human)
  kinase still bound, per cent of control: 77%
